Measurements from paper PMC6911004, “Fragment-based screening identifies molecules targeting the substrate-binding ankyrin repeat domains of tankyrase” (Scientific Reports, 2019).

Key:
TNKS2 ARC5 = biological target: T1, TNKS2 ARC5 (Homo sapiens, UniProt Q9H2K2); assay: Differential scanning fluorimetry (DSF, thermal shift); assay type: binding; details: fragment 500 μM
T1 construct: followed by TNKS2 ARC5 (1 μL, 100 μM stock); His6-GST; made in house; host or cells: E. coli
Method: Therefore, we chose TNKS2 ARC5 for screening by DSF, anticipating the largest signal window for measuring changes in Tm upon fragment binding.
We screened 1869 compounds in duplicate at a concentration of 500 μM, which we considered a reasonable compromise between having a sufficiently high concentration to identify weak binders while minimising the likelihood of false positives through fragment precipitation/aggregation and non-specific binding. The final DMSO concentration was 5%. We calculated melting temperatures using both the inflection point and the maximum peak of first derivative data methods. Both methods generally agreed, unless the melt curve was biphasic or misshapen, with slightly lower variability for the […] Tm determination method (see Materials and Methods for experimental and analysis details).
We determined the melting temperature for the unbound ARC (Tm, 0) from the mean of 12 reference melting curves per plate, with 5% DMSO only. We calculated the change in melting temperature (ΔTm) by subtracting the mean Tm, 0 from Tm, compound. We tested compounds in duplicate, defining fragments as hits if they conferred a ΔTm outside two standard deviations (2σ) from the mean, in one or both replicates. To check for consistency between plates, we ran triplicate peptide controls; however, we excluded peptide ΔTm values from the calculation of the mean ΔTm to avoid skewing the results. We observed mean ΔTm values (IP/1st derivative methods) of −0.127/−0.331 °C and σ as 0.997/1.19 °C. A hit cut-off of 2σ gave absolute shifts of +1.87/+2.05 °C for compounds that stabilised and −2.13/−2.71 °C for compounds that destabilised the ARC (Fig. 2B).
For the screen, a C1000 thermal cycler (Bio-Rad) was used to record melt curves. SYPRO Orange was purchased as a 5000 × stock in DMSO from Sigma Aldrich. The ICR fragment library was available as 100 mM stocks in DMSO, and dispensed (25 nL) using an ECHO acoustic liquid handling system into white 384-well PCR plates (Framestar, 4titude). Wells were backfilled with DMSO (225 nL). Buffer (2.75 μL, 25 mM HEPES-NaOH pH 7.5, 100 mM NaCl, 2 mM TCEP) was added, followed by TNKS2 ARC5 (1 μL, 100 μM stock) and then SYPRO orange dye (1 μL, 25×). The plate was centrifuged after the addition of each reagent (1 min, 1000 × g). Final assay concentrations were as follows: TNKS2 ARC5 (20 μM); fragment (500 μM); SYPRO Orange dye (5×); DMSO (5% v/v) in a total volume of 5 μL. Peptide control wells (3BP2 TBM 16-mer, 200 μM, sequence LPHLQRSPPDGQSFRSW with C-terminal tryptophan added for photometric concentration measurements, the N-terminus acetylated and the C-terminus amide-capped) were plated in triplicate, and there were 12 blank wells per plate, with DMSO only (250 nL, 5% v/v). Melt curves were recorded from 20–95 °C, with the temperature ramped by 0.5 °C every 15 s. Data were analysed using Vortex (Dotmatics) software and melting temperatures calculated from both the inflection point and the maximum peak of 1st-derivative data. Data points were excluded if the melt curve was poor, i.e., if there was no fluorescence signal above baseline, high fluorescence intensity throughout, or if the melt curve was shallow (<1000 rfu difference between baseline and peak maximum). The unbound melting temperature was determined from the mean of 12 reference melting curves, with 5% DMSO only. The change in melting temperature (ΔTm) was calculated by subtracting the mean Tm, 0 from Tm, compound. Compounds were tested in duplicate, and fragments were defined as hits if they gave a ΔTm outwith 2 σ from the mean in one or both replicates.
For the experiment shown in Fig. 2A, ARC and 3BP2 TBM peptide concentrations were 20 and 200 μM, respectively, in 50 mM HEPES-NaOH pH 7.5, 100 mM NaCl, 2 mM TCEP and a total volume of 25 μL. SYPRO Orange was added at 5×. Data were recorded from 4–95 °C, with the temperature ramped by 0.5 °C every 15 s, using a CFX384 thermal cycler (Bio-Rad). […]

TNKS2 ARC4 = biological target: T2, TNKS2 ARC4 (Homo sapiens, UniProt Q9H2K2); assay: Primary fragment screen by T2 relaxation-edited ligand-observed NMR (cocktails of four); assay type: binding; details: fragments 1 mM each, 35 μM protein
T2 construct: The cell was filled with TNKS2 ARC4 (488–649); His6-GST; made in house; host or cells: E. coli
T2 sequence (Q9H2K2 488-649): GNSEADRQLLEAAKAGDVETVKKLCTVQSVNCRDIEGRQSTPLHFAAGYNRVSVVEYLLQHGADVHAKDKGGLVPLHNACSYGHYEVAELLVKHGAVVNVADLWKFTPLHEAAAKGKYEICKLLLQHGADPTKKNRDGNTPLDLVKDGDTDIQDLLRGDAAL
Text: The hit rate for compounds confirmed to bind TNKS2 ARC5 as evaluated by NMR was relatively low, at 0.78%, and only 0.16% for fragments binding TNKS2 ARC4 and 5 competitively with a TBM peptide. Different screening assays often identify distinct hit fragments. There is no consensus on the most appropriate assays to use for fragment screening, especially against challenging targets such as protein-protein interactions. Often several orthogonal methods are used in series to narrow down fragment hits, or a combination of biophysical and biochemical assays to exclude false positives and identify binders that modulate protein activity. We therefore carried out an additional primary screen using T2 relaxation-edited ligand-observed NMR on TNKS2 ARC4, probing a subset of molecules from the ICR fragment library that was compatible with NMR. […]
Data were processed using Bruker Topsin 3.14, then analysed using the MNova Screen software. […] The relative peak intensity change (I) was calculated by Eq. 1 for all peaks in the 5.5–9.5 ppm region, for each compound.1 I=(Iblank−Iprotein)/Iblank
The average percentage change was then calculated, and compounds designated a hit if the signal was reduced by ≥26% (2 σ). […] Protein ^1H spectra of TNKS2 ARC4 (200 μM) were measured at 24 h intervals to ensure protein stability and folding for the duration of the screening experiments.

T1 sequence (Q9H2K2 641-800): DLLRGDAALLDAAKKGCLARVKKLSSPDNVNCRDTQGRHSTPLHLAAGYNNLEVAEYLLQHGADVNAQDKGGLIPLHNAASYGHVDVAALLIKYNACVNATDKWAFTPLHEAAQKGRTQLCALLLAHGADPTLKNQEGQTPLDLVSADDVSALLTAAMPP

Question: `CCOc1cccc(-c2cc(N)[nH]n2)c1` [compound 6] was tested. Which “hit in DSF primary screen” value (TNKS2 ARC5) did it give?
Answer: hits

Question: What about the “hit in NMR primary screen” value (TNKS2 ARC4) of the same compound?
Answer: hits

Question: For `Nc1nc(Nc2ccccc2)nc2ccccc12` [compound 7], which “hit in DSF primary screen” value (TNKS2 ARC5) is on record?
Answer: hits

Question: What about the “hit in NMR primary screen” value (TNKS2 ARC4) of the same compound?
Answer: hits
